Reference: publication PMC11490619, “Discovery of Trypanosoma brucei inhibitors enabled by a unified synthesis of diverse sulfonyl fluorides” (Communications Chemistry, 2024)

Key:
[1] = test system: T1, Trypanosoma brucei brucei bloodstream forms; assay: microbe, parasite or virus in culture; set-up: Resazurin viability of bloodstream form parasites, fluorescence 560/590 nm, dose-response, initial screen n = 1; settings: initial screen, n = 1, 0.5% DMSO
T1 construct: 427 single marker, bloodstream form
Description: Cell viability assays were carried out in 96 well plates with 200 µL of culture per well as described previously. For this study we used bloodstream forms (BSF) of Trypanosoma brucei brucei strain 427 single marker. Axenic cultures of parasites were maintained at the logarithmic phase of cell proliferation (density below 2 ×10^6 parasites/mL) by successive passages in HMI-11 media supplemented with 10% heat inactivated foetal calf serum and 2.5 mg/L geneticin (Ge418) at 37°C under an atmosphere of 5% CO2. Parasites were seeded at 5 ×10^3 cells/mL and incubated with drug for 66 hours. The plate included wells containing the positive control pentamidine (100 nM) and the negative control of 0.5% DMSO. After 66 hours, 10 µL of 1.1 mg/mL Resazurin sodium salt was added in PBS and incubated for a further 6 hours. Plates were then read on a plate reader using excitation/emission 560/590 nm. EC50 values and errors were calculated using a sigmoidal dose response fitting algorithm. The initial screen was performed at n = 1 with follow-up screen of hits n = 4 technical replicates. The set of diverse sulfonyl fluoride probes was screened against Trypanosoma brucei brucei bloodstream forms in 96-well plate format (final concentrations: 0.1–100 μM in 0.5% dimethyl sulfoxide (DMSO); n = 1) (Fig. 3b). […]

[2] = biological target: T2, prolyl endo-/oligo-peptidase S9 (Q38AG2) (Trypanosoma brucei, UniProt Q38AG2); assay: C-1alk click biotin pulldown, LFQ LC-MS/MS; type: biochemical; settings: covalent; labelled compound; parasite lysate; 1.5 uM C-1alk, 1 h, 25 C
T2 construct: gene Tb10.6k15.2520; native protein in parasite lysate
T2 sequence (Q38AG2 entry or part of it, one chain of several): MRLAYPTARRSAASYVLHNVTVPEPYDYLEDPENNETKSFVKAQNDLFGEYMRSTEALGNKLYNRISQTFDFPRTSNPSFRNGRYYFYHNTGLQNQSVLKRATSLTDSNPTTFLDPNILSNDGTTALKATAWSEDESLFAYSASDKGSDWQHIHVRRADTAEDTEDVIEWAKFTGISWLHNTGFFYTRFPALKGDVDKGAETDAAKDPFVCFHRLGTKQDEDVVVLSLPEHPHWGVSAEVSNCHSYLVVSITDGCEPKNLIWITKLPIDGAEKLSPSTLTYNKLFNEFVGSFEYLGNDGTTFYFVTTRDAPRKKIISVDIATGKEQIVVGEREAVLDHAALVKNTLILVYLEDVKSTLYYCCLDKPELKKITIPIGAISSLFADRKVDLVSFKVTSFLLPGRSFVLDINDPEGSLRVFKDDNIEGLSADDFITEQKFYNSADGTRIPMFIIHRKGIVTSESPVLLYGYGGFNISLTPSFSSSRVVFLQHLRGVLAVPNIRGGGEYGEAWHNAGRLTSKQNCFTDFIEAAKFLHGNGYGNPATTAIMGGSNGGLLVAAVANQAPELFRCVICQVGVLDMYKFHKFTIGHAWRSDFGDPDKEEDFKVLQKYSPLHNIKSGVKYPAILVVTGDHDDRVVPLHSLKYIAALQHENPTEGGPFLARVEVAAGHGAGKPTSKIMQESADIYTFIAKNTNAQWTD

[3] = biological target: T3, T. brucei glycerol kinase (Q38DF0) (Trypanosoma brucei, UniProt Q38DF0); assay: modified-peptide LC-MS/MS after click to cleavable biotin-azide; type: binding; settings: covalent; labelled compound; parasite lysate; site S137, T138 or Y139
T3 construct: gene Tb09.211.3570; native protein in parasite lysate
T3 sequence (Q38DF0 entry or part of it): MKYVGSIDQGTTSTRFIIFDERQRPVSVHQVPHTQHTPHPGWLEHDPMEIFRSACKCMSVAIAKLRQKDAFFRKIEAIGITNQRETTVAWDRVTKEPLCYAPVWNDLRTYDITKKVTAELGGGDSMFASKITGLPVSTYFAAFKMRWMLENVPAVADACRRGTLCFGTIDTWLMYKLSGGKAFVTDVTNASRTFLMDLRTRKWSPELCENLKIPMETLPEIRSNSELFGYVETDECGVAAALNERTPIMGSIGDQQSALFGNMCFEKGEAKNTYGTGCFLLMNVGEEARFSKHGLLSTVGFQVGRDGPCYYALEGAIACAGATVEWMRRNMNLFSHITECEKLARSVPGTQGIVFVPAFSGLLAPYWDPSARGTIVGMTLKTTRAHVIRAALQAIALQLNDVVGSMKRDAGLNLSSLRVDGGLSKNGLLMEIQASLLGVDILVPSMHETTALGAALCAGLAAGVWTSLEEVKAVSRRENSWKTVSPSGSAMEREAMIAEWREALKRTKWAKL

[4] = biological target: T4, lyso-phospholipase (D6XM23) (Trypanosoma brucei, UniProt D6XM23); assay: C-1alk click biotin pulldown, LFQ LC-MS/MS; type: biochemical; settings: covalent; labelled compound; parasite lysate; 1.5 uM C-1alk, 1 h, 25 C
T4 construct: gene Tb08.11J15.160; native protein in parasite lysate, about 30 kDa
T4 sequence (D6XM23 entry or part of it): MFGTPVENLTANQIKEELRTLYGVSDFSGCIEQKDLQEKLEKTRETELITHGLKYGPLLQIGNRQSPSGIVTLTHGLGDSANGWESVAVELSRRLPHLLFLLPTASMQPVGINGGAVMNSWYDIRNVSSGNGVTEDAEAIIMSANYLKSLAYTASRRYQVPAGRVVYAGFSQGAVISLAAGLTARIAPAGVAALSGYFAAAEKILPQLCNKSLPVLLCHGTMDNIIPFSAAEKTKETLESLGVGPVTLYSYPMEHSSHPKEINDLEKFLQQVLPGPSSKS

CC(C)(C)OC(=O)N1CCCC1c1ccc(S(=O)(=O)F)cn1 (stereo not shown) [C-1]
EC50 [1]: 0.33 µM

C#CCOC(=O)N1CCCC1c1ccc(S(=O)(=O)F)cn1 (stereo not shown) [C-1alk]
C-1alk click biotin pulldown, LFQ LC-MS/MS [2]: prolyl endo-/oligo-peptidase S9 (Q38AG2), which had been previously enriched with our C-1alk probe | modified-peptide LC-MS/MS after click to cleavable biotin-azide [3]: identify peptides matching the expected mass shift for T. brucei glycerol kinase (Q38DF0) | C-1alk click biotin pulldown, LFQ LC-MS/MS [4]: Lyso-phospholipase emerged as the sole common hit labelled by both C-1alk and FP-biotin
